Reference: patent US6686390B2, “Compounds having antiinflamatory activity: process for their preparation and pharmaceutical compositions containing them” (Dr. Reddy's Laboratories Limited, priority 2000, dated 2004)

Legend:
COX-1 = molecular target: T1, COX-1 (Homo sapiens, UniProt P23219); test: Human whole blood assay, COX-1 inhibition; assay type: cell-based
T1 construct: Fresh heparinised human whole blood; endogenous in cells; host or cells: human whole blood
Description: (§1) 2) Human Whole Blood Assay:
Fresh heparinised human whole blood was incubated with lipopolysaccharide (LPS) from E. coli at 100 μg/ml and with 2.5 μl vehicle (D)MSO) or test compound for 24 hours at 37° C. PGE2 levels in the plasma were measured using EIA kit (Cayman chemicals, USA) after deproteinization.

COX-2 [1] = molecular target: T2, COX-2 (Homo sapiens, UniProt P35354); test: Human whole blood assay, COX-2 inhibition; assay type: cell-based; design: endogenous in cells; host or cells: human whole blood; settings: read-out: IC50 COX-II
T2 sequence (P35354 18-604): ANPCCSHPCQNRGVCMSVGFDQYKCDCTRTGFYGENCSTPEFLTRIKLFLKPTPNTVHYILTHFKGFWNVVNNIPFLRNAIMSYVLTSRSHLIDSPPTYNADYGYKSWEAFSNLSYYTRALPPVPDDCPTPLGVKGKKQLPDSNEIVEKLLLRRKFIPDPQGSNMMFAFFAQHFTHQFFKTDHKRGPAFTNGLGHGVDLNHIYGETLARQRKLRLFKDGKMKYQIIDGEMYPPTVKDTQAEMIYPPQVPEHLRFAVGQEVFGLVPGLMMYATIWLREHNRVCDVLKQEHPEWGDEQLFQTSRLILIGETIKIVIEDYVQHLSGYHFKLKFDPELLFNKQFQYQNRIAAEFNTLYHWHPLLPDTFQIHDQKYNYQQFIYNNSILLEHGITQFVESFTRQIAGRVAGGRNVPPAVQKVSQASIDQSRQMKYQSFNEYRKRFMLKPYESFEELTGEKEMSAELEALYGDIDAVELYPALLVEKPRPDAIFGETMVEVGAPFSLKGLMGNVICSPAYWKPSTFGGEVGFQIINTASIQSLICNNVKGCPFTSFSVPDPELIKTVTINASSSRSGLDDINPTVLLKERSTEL
Description: as §1
An aliquot of fresh blood was mixed either with DMSO or test compounds and was allowed to clot for 1 hour at 37° C. TXB2 levels in the serum were measured using EIA kit (Cayman chemicals, USA) after deproteinization.

cox-1 enzyme = molecular target: T3, cox-1 enzyme (Ovis aries, UniProt P05979); test: Spectrophotometric assay of cox-1 (TMPD oxidation); assay type: biochemical; settings: microsomal fraction of ram seminal vesicles, read-out: Percent inhibition COX-1; for inhibition at 100 µM: Conc. 100 μM
T3 construct: Microsomal fraction of ram seminal vesicles used as a source of cox-1 enzyme; from tissue; host or cells: ram seminal vesicles (microsomal fraction)
T3 sequence (P05979 25-600): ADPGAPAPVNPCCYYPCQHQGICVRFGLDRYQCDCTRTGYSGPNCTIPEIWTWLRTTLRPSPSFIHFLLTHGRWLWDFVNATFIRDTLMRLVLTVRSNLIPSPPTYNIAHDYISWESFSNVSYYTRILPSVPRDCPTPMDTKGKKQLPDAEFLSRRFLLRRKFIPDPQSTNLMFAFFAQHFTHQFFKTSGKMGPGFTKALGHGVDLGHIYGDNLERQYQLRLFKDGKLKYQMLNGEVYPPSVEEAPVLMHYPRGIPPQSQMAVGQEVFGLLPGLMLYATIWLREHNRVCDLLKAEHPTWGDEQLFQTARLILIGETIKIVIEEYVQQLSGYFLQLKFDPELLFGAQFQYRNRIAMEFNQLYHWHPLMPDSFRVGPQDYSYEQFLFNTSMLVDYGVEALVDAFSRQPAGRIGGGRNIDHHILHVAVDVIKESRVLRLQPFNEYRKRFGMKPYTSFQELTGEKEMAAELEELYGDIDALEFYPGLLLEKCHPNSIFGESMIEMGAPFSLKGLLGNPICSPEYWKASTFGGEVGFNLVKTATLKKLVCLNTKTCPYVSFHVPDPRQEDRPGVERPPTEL
Description: (§2) 1. Spectrophotometric assay of cox-1 and cox-2:
(§3) Microsomal fraction of ram seminal vesicles used as a source of cox-1 enzyme (Hemler et al., 1976) and microsomes from sf-9 cells infected with baculo virus containing human cox-2 c-DNA used as a source of cox-2 enzyme (Wanda et al., 1994). Enzyme activity was measured using a chromogenic assay based on oxidation of N,N,N′,N′-tetramethyl-p-phenylenediamine (TMPD) during the reduction of PGG2 to PGH2 as per described by Copeland et al., 1994 with following modifications. The assay mixture (1000 μl) contains […] pH 8.0, 3 μM EDTA, 15 μM hematin, 150 units enzyme and 8% DMSO. The mixture was pre-incubated at 25° C. for 15 minutes before initiation of enzyme reaction in presence of compound/vehicle. The reaction was initiated by the addition of 100 μM arachidonic acid and 120 μM TMPD. The enzyme activity is measured by estimation of the initial velocity of TMPD oxidation over the first 25 seconds of the reaction followed by increase in absorbency at […]. The IC50 values were calculated using non-linear regression analysis of percent inhibitions.

COX-2 [2] = molecular target: T2, COX-2; test: Spectrophotometric assay of cox-2 (TMPD oxidation); assay type: biochemical; design: made in house; host or cells: sf-9 insect cells, baculovirus; settings: microsomes from sf-9 cells with human cox-2, read-out: Percent inhibition COX-2; for inhibition at 100 µM: Conc. 100 μM
Description: as §2, §3

T1 sequence (P23219 24-599): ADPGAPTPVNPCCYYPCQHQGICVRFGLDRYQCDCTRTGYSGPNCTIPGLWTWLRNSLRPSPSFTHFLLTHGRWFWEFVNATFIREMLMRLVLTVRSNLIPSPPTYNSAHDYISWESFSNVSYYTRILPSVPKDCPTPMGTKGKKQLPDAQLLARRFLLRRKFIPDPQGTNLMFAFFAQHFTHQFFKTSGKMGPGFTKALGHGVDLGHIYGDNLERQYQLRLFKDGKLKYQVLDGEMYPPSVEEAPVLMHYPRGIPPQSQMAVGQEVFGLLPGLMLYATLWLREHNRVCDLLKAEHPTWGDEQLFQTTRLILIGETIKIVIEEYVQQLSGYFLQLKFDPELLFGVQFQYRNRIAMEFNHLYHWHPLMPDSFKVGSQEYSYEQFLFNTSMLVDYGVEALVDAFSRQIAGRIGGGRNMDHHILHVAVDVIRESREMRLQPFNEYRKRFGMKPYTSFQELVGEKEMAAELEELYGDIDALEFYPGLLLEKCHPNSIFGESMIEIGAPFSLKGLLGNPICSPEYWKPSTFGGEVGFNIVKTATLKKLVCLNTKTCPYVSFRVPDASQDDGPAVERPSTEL

melting point | IC50 (COX-1) | IC50 (COX-2 [1]) | inhibition at 100 µM (cox-1 enzyme) | inhibition at 100 µM (COX-2 [2]) | inhibition at 10 µM (cox-1 enzyme; Conc. 10 μM) | inhibition at 10 µM (COX-2 [2]; Conc. 10 μM) | SMILES
167 to 170 °C | > 500 µM | 5.7 µM | 0% | 82% |  |  | Cc1cc(C2=C(c3ccccc3)C(=O)OC2)ccc1S(C)(=O)=O [Example 6, 4-(3-Methyl-4-methylsulfonylphenyl)-3-phenyl-2,5-dihydro-2-furanone]
146 to 148 °C | > 500 µM | 0.318 ± 0.013 µM | 10% | 93% |  |  | CS(=O)(=O)c1ccc(C2=C(c3ccc(F)c(F)c3)C(=O)OC2)c(F)c1 [Example 69, 3-(3,4-Difluorophenyl)-4-(2-fluoro-4-methylsulfonylphenyl)-2,5-dihydro-2-furanone]
147 to 150 °C | > 100 µM | 1 µM | 30% | 100% |  |  | COc1ccc(C2=C(c3ccc(S(C)(=O)=O)c(C)c3)COC2=O)cc1C [Example 55, 3-(3-Methyl-4-methoxyphenyl)-4-(3-methyl-4-methylsulfonylphenyl)-2,5-dihydro-2-furanone]
144 to 146 °C | 357 ± 7.45 µM | 0.524 ± 0.062 µM | 19% | 93% |  |  | COc1ccc(C2=C(c3ccc(S(C)(=O)=O)cc3F)COC2=O)cc1C [Example 58, 4-(2-Fluoro-4-methylsulfonylphenyl)-3-(3-methyl-4-methoxyphenyl)-2,5-dihydro-2-furanone]
125 to 128 °C | 1220 ± 20 µM | 0.578 ± 0.011 µM | 12% | 100% |  |  | CS(=O)(=O)c1ccc(C2=C(c3cccc(F)c3)C(=O)OC2)c(F)c1 [Example 52, 4-(2-Fluoro-4-methylsulfonylphenyl)-3-(3-fluorophenyl)-2,5-dihydro-2-furanone]
190 to 192 °C | > 1000 µM | 6.13 µM |  |  | 0% | 95% | CC1OC(=O)C(c2ccc(F)cc2)=C1c1ccc(S(C)(=O)=O)c(F)c1 (stereo not shown) [Example 89, 4-(3-Fluoro-4-methylsulfonylphenyl)-3-(4-fluorophenyl)-5-methyl-2,5-dihydro-2-furanone]
177 to 180 °C | 247 ± 24 µM | 0.368 µM | 44% | 100% |  |  | CSc1ccc(C2=C(c3ccc(S(C)(=O)=O)c(F)c3)COC2=O)cc1C [Example 53, 4-(3-Fluoro-4-methylsulfonylphenyl)-3-(3-methyl-4-methylsulfanylphenyl)-2,5-dihydro-2-furanone]
176 to 178 °C | 297 µM | 1.25 µM | 0% | 100% |  |  | CCC1OC(=O)C(c2ccc(F)cc2)=C1c1ccc(S(C)(=O)=O)c(F)c1 (stereo not shown) [Example 68, 5-Ethyl-4-(3-fluoro-4-methylsulfonylphenyl)-3-(4-fluorophenyl)-2,5-dihydro-2-furanone]
